Experimental data: patent US6740663B2, “Mono- and di-fluorinated benzothiepine compounds as inhibitors of apical sodium co-dependent bile acid transport (ASBT) and taurocholate uptake” (G.D. Searle, LLC, priority 2001, dated 2004)

melting point [°C] | Compound
67 to 72.5 | CCCCC1(CCCC)CS(=O)(=O)c2ccc(N(C)C)cc2[C@@H](c2ccc(OCCCCCNC(=N)N)cc2)[C@H]1O [Example 1422, (4R-cis)-[5-[4-[3,3-Dibutyl-7-(dimethylamino)-2,3,4,5-tetrahydro-4-hydroxy-1,1-dioxido-1-benzothiepin-5-yl]phenoxy]pentyl]guanidine]
174.5 to 177 | CCCC[C@]1(CC)CS(=O)(=O)c2ccc(N3CCCC3)cc2[C@@H](c2ccc(F)cc2)[C@H]1O [Compound 82, (3α,4β,5β)3-Butyl-3-ethyl-5-(4′-fluoropheny)-4-hydroxy-7-(1-pyrrolidinyl)-2,3,4,5-tetrahydrobenzothiepine-1,1-dioxide]
176.5 to 187.5 | CCCC[C@]1(CC)CS(=O)(=O)c2ccc(N3CCOCC3)cc2[C@@H](c2ccc(F)cc2)[C@H]1O [Compound 83, (3α,4β,5β)3-Butyl-3-ethyl-5-(4′-fluorophenyl)-4-hydroxy-7-(1-morpholinyl)-2,3,4,5-tetrahydrobenzothiepine-1,1-dioxide]
143 | CCCCC1(CCCC)CS(=O)(=O)c2ccc(N(C)C)cc2[C@@H](c2ccc(OCCCCCOc3cc(C(=O)O)nc(C(=O)O)c3)cc2)[C@H]1O [Example 1421, (4R-cis)-4-[[5-[4-[3,3-Dibutyl-7-(dimethylamino)-2,3,4,5-tetrahydro-4-hydroxy-1,1-dioxido-1-1benzothiepin-5-yl]phenoxy]pentyl]oxy]-2,6-pyridinecarboxylic Acid]
156 to 159 | CCCCC1(CCCC)CS(=O)(=O)c2ccc(N(C)C)cc2[C@@H](c2ccc(OCc3ccc(C(=O)O)cc3)cc2)[C@H]1O [Example 1424, (4R-cis)-4-[[4-[3,3-Dibutyl-7-(dimethylamino)-2,3,4,5-tetrahydro-4-hydroxy-1,1-dioxido-1-benzothiepin-5-yl]phenoxy]methyl]benzoic Acid]
193 to 197 | CCCCC1(CCCC)CS(=O)(=O)c2ccc(N(C)C)cc2[C@@H](c2ccc(OCCCCC[N+](C)(C)CC[N+](C)(C)CC)cc2)[C@H]1O [Example 1418, (4R-cis)-N-[5-[4-[3,3-Dibutyl-7-(dimethylamino)-2,3,4,5-tetrahydro-4-hydroxy-1,1-dioxido-1-benzothiepin-5-yl]phenoxy]pentyl]-N′-ethyl-N,N,N′,N′-tetramethyl-1,2-ethanediaminium Dichloride]
119.5 | CCCCC1(CCCC)CS(=O)(=O)c2ccc(N(C)C)cc2[C@@H](c2ccc(OCCOCCC(C(=O)O)C(=O)O)cc2)[C@H]1O [Example 1432, (4S-cis)-[2-[2-[4-[3,3-Dibutyl-7-(dimethylamino)-2,3,4,5-tetrahydro-4-hydroxy-1,1-dioxido-1-benzothiepin-5-yl]phenoxy]ethoxy]ethyl]propanedioic Acid]
218 to 225 | CCCCC1(CCCC)CS(=O)(=O)c2ccc(N(C)C)cc2[C@@H](c2cccc(NC(=O)OCCC[N+]34CCN(CC3)CC4)c2)[C@H]1O.[Cl-]
108 to 110 | CCCCC1(CCCC)CS(=O)(=O)c2ccc(N(C)C)cc2[C@@H](c2ccc(OCCCCS(N)(=O)=O)cc2)[C@H]1O [Example 1405]
105 to 107 | CCCCC1(CCCC)CS(=O)(=O)c2ccc(N(C)C)cc2[C@@H](c2ccc(OCc3cccc(CCC(=O)O)n3)cc2)[C@H]1O [Example 1430, (4R-cis)-6-[[4-[3,3-Dibutyl-7-(dimethylamino)-2,3,4,5-tetrahydro-4-hydroxy-1,1-dioxido-1-benzothiepin-5-yl]phenoxy]methyl]-2-pyridinepropanoic Acid]
80 to 85 | CCCCC1(CCCC)CS(=O)(=O)c2ccc(N(C)C)cc2[C@@H](c2ccc(OCCCCCc3nn[nH]n3)cc2)[C@H]1O [Example 1420, (4R-cis)-3,3-Dibutyl-7-(dimethylamino)-2,3,4,5-tetrahydro-5-[4-[[5-(1H-tetrazol-5-yl)pentyl]oxy]phenyl]-1-benzothiepin-4-ol 1,1-Dioxide]
118 | CCCCC1(CCCC)CS(=O)(=O)c2ccc(N(C)C)cc2[C@@H](c2ccc(OCCCCCC(C(=O)O)C(=O)O)cc2)[C@H]1O [Example 1413, (4S-cis)-[5-[4-[3,3-Dibutyl-7-(dimethylamino)-2,3,4,5-tetrahydro-4-hydroxy-1,1-dioxido-1-benzothiepin-5-yl]phenoxy]pentyl]propanedioic Acid]
246 to 248 | CCCCC1(CCCC)CS(=O)(=O)c2ccc(N(C)C)cc2[C@@H](c2cccc(NC(=O)Nc3cccc(C[N+]45CCN(CC4)CC5)c3)c2)[C@H]1O.[Cl-]
